Data from PubChem BioAssay (NCI).
Where “and” joins values, the source holds several entries; their conditions need not be identical. Equal values may be shown once.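 Dose response: 5 concentrations. Exposure: 48 h. Format: 96-well plates. Endpoint: linear interpolation; highest concentration if not reached. At the GI50, growth is halved. Definition used: TGI = concentration required for complete inhibition of growth.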

Experiments:
Assay in all cases: DTP human tumour cell line panel, 48 h
A498 renal = test system: A498 renal
CCRF-CEM leukemia = test system: CCRF-CEM leukemia
DU-145 prostate = test system: DU-145 prostate
HOP-62 NSCLC = test system: HOP-62 NSCLC
IGROV1 ovarian = test system: IGROV1 ovarian
MCF7 breast = test system: MCF7 breast
MDA-MB-231 breast = test system: MDA-MB-231 breast
NCI-H460 lung = test system: NCI-H460 lung
SK-MEL-28 melanoma = test system: SK-MEL-28 melanoma
SN12C renal = test system: SN12C renal

Row | Compound | TGI (A498 renal) | TGI (CCRF-CEM leukemia) | TGI (DU-145 prostate) | TGI (HOP-62 NSCLC) | TGI (IGROV1 ovarian) | TGI (MCF7 breast) | TGI (MDA-MB-231 breast) | TGI (NCI-H460 lung) | TGI (SK-MEL-28 melanoma) | TGI (SN12C renal) | GI50 (A498 renal) | GI50 (CCRF-CEM leukemia) | GI50 (DU-145 prostate) | GI50 (HOP-62 NSCLC) | GI50 (IGROV1 ovarian) | GI50 (MCF7 breast) | GI50 (MDA-MB-231 breast) | GI50 (NCI-H460 lung) | GI50 (SK-MEL-28 melanoma) | GI50 (SN12C renal)
1 | CC(C)CNP(=O)(NCC(C)C)Oc1ccc(CC(NC(=O)OCc2ccccc2)C(=O)OCc2ccccc2)cc1 (centres undefined) | 50.8 µM | 32.8 µM | 24.3 µM | 30.8 µM | > 100 µM | 24.7 µM | 34.9 µM | 33.4 µM | 30.5 µM | 39.9 µM |  |  |  |  |  |  |  |  |  | 
2 | COC(=O)c1c(O)ccc2c1c1c(n2Cc2ccc(OC)cc2)C(=O)c2ccccc2C1 | > 100 µM | 89.4 µM | > 100 µM | > 100 µM | > 100 µM | > 100 µM | > 100 µM | > 100 µM | > 100 µM | 93.3 µM |  |  |  |  |  |  |  |  |  | 
3 | CC(=O)Oc1cc2c(cc1OCC(F)(F)F)[C@H]1CC[C@]3(C)[C@@H](OC(C)=O)CC[C@H]3[C@@H]1CC2=O | 27 µM | 40.1 µM | 51.6 µM | > 70 µM | > 66.8 µM | > 75.6 µM | 60.2 µM | > 100 µM | > 67.6 µM | 57.6 µM |  |  |  |  |  |  |  |  |  | 
4 | COc1ccc(O[C@H](CO)C[C@@H]2COC(C)(C)O2)cc1 | > 100 µM | > 100 µM | > 100 µM | > 100 µM | > 100 µM | > 100 µM | > 100 µM | > 100 µM | > 100 µM | > 100 µM |  |  |  |  |  |  |  |  |  | 
5 | N#Cc1cc(F)cc(Oc2ccc(S(=O)(=O)C(F)F)c3c2CC(F)(F)[C@H]3O)c1 | 73.6 µM | > 100 µM | > 100 µM | > 100 µM | > 100 µM | > 100 µM | 73.2 µM | > 100 µM | > 100 µM | > 100 µM | 20.6 µM | 22.9 µM | 36.1 µM | 51.1 µM | 37.4 µM | 25.7 µM | 22.3 µM | 42.1 µM | 36.1 µM | 28.7 µM
6 | O=C(O)[C@H]1NC[C@H]2C(Br)=NO[C@@H]12 | > 100 µM | > 100 µM | > 100 µM | > 100 µM | > 100 µM | > 100 µM | > 100 µM | > 100 µM | > 100 µM | > 100 µM |  |  |  |  |  |  |  |  |  | 
7 | Cn1c2c(c3c(=O)[nH]ncc31)Cc1ccccc1-2 | 27.5 µM | > 100 µM | 50.7 µM | > 100 µM | 33.7 µM | 56.5 µM | 98.2 µM | 15.1 µM | 60.1 µM | 47.9 µM |  |  |  |  |  |  |  |  |  | 
8 | O=c1[nH]c2c(Nc3c4ccccc4nc4ccccc34)c([N+](=O)[O-])c(Nc3c4ccccc4nc4ccccc34)c([N+](=O)[O-])c2[nH]1 | 3.35 µM | 6.02 µM | 11.5 µM | 20.2 µM | 5.18 µM | 10.2 µM | 4.92 µM | > 22.5 µM | 11.3 µM | 8.8 µM |  |  |  |  |  |  |  |  |  | 
9 | C[C@H]1CCC/C=C/[C@@H]2C[C@H](OC3OC(CO)C(O)C(O)C3O)C[C@H]2[C@H](O)/C=C/C(=O)O1 (some centres undefined) | 69.1 µM | > 100 µM | > 100 µM | > 100 µM | > 100 µM | > 100 µM | 42.9 µM | > 100 µM | 87.3 µM | > 100 µM |  |  |  |  |  |  |  |  |  | 
10 | Nc1c(C(=O)O)c2ccc([N+](=O)[O-])cc2c(=O)n1-c1nc2ccccc2s1 | > 100 µM | > 100 µM | > 100 µM | > 100 µM | > 100 µM | > 100 µM | > 100 µM | > 100 µM | > 100 µM | > 100 µM |  |  |  |  |  |  |  |  |  | 
11 | COc1cccc2c(=O)oc(-c3ccccc3C)nc12 | > 100 µM | 73 µM | > 100 µM | 76.3 µM | 96.8 µM | > 100 µM | > 100 µM | > 100 µM | > 100 µM | 69.4 µM |  |  |  |  |  |  |  |  |  | 
12 | COC(=O)C(Cc1ccccc1)NC(=O)C(CNC(=O)OCc1ccccc1)C(=O)OCc1ccccc1 (centres undefined) | > 100 µM | > 100 µM | > 100 µM | 39.9 µM and > 100 µM | > 100 µM | > 100 µM and 79.8 µM | > 100 µM and 64.6 µM | > 100 µM and 36.5 µM | > 100 µM and 41.7 µM | > 100 µM |  | > 100 µM and 38.5 µM |  | 18 µM and 94.1 µM |  |  |  | 94.1 µM and 13.5 µM | > 100 µM and 20.8 µM | 
13 | COC1=C(OC)C(=O)C(Cc2c(Cl)nc3sccn23)=C(C)C1=O | 28.5 µM | 5.44 µM | 27.2 µM | 31.1 µM | 29.1 µM | 26.8 µM | 8.28 µM | 25.4 µM | 24.4 µM | 26.2 µM |  |  |  |  |  |  |  |  |  | 
14 | CC1(C)CCC[C@@]2(C)C1CC[C@@]1(CO)O[C@H](C3=CC(=O)OC3O)C[C@H]12 (some centres undefined) | 30.1 µM | 10 µM | 17.8 µM | 19.3 µM | 42.5 µM | 26.7 µM | 36.1 µM | 38.8 µM | 25.6 µM | 26.6 µM |  |  |  |  |  |  |  |  |  | 
15 | CC1=NC(=N)N=C(C)C1N=Nc1ccc2nc(C)[nH]c2c1 (centres undefined) | > 100 µM | > 100 µM | > 100 µM | > 100 µM | > 100 µM | > 100 µM | > 100 µM | > 100 µM | > 100 µM | > 100 µM |  |  |  |  |  |  |  |  |  | 
